Measurements as given in patent publication US8420657B2 (Novartis AG, priority 2008, dated 2013).

Assays:
[1] = system: JAK2-dependent nuclear translocation of STAT5-GFP in U-2 OS osteosarcoma cells; assay: STAT5 nuclear translocation assay (Cellomics), rhEpo stimulated U-2 OS STAT5-GFP cells; type: cell-based; details: Homo sapiens, U2OS; STAT5 translocation pathway
Text: The medium-throughput (96-well format) cellular automated fluorescence microscopy Cellomics assay can be routinely used to assess the functional activation of Janus Kinases (JAKs), based on the nuclear translocation of their substrate, Signal Transducer and Activator of Transcription (STAT). Nuclear translocation can be monitored either in HT1080 fibrosarcoma cells stably transfected with STAT1 fused to Green Fluorescence Protein (GFP) or in U-2 OS osteosarcoma cells stably transfected with STAT5 fused to Green Fluorescence Protein (GFP). Stimulation of HT1080 cells with interferon-γ (IFN-γ) results in JAK1/JAK2-dependent nuclear translocation of STAT1-GFP, whereas stimulation of U-2 OS cells with recombinant human erythropoietin (rhEpo) results in JAK2-dependent nuclear translocation of STAT5-GFP, both of which can be quantified using the Cellomics Cyto/NucTrans software package. This assay may be used to provide an assessment of the nuclear-cytoplasmic differential (NCD) of STAT-GFP using Hoechst dye to define the boundaries of the nucleus.
U-2 OS osteosarcoma cells may be obtained from ATCC and can be cultured in standard RPMI medium supplemented with 10% FCS and 2 mM L-glutamine. Cells can be stably transfected with STAT5a-GFP using Lipofectamine following the manufacturers' protocol. 24 hours after transfection the medium can be replaced and selected in 400 μg/ml Geneticin. Subsequently, cells can be stably transfected with EpoR using Lipofectamine following the manufacturers' protocol. 24 hours after transfection the medium can be replaced and cells selected in 100 μg/ml Hygromycin B.
Compounds can be dissolved in DMSO to a final stock concentration of 10 mM and stored as aliquots at 4° C. Compounds may be pre-diluted in 100% DMSO at 10 mM, 3 mM 1 mM, 0.3 mM, 0.1 mM, 0.03 mM, 0.01 mM and 0.003 mM. Subsequently, compounds may be diluted in medium and added in 50 μl to the cells. The final compound concentrations tested may be 10 μM, 3 μM 1 μM, 0.3 μM, 0.1 μM, 0.03 μM, 0.01 μM and 0.003 μM and the final DMSO concentration can be 0.1%.
U-2 OS may be seeded at a cell density of 12,000 cells per well in clear-bottom black 96-well Packard View-Plates™. The following day, medium can be removed and replaced with medium containing either the vehicle (DMSO) or increasing concentrations of test compounds for 30 minutes at 37° C. Cells can then be stimulated for 1 hour by adding 10 μl per well of 50 U/ml rhEpo to obtain 5 U/ml of rhEpo as the final concentration. Following treatments, cells can fixed and processed as described above.
The plates can be read on a Cellomics® ArrayscanII automated fluorescence microscope plate reader equipped with a Mercury-Xenon white light illumination source and a Zeiss Axiovert inverted microscope, using the XF100 dichroic/emission filter cube and matching excitation filters, 10× magnification, and a 0.3 numerical aperture objective. Image acquisition and analysis can be performed using a customized protocol based on the ‘NuclearTranslocation’ Bioapplication. For each well, multiple images (fields) can be acquired until a minimum of 1000 cells are counted using two 2 channels: Channel 1 (Hoechst)=focus+nuclear mask, Channel 2 (GFP)=signal quantification in mask areas as outlined below. Nuclei may be first identified based on the Hoechst staining and a mask generated for each nucleus that then serves as a template to generate a circle (eroded inwards by 1 pixel) and a 3 pixel-wide collar-like ring (off-set outwards by 1 pixel), in which the nuclear and cytoplasmic intensity of GFP, respectively, are quantified in the corresponding channel. High content analysis yields numerous measurements per cell and the GFP intensity differential between the nuclear and the cytoplasmic masks may be chosen as a measure of sub-cellular STAT-GFP relocation. The resulting values may be averaged for all cells in the well to return a single measurement plus standard deviation. […]

GST-JAK2(808-1132) = target: T1, GST-JAK2(808-1132) (Homo sapiens, UniProt O60674); assay: JAK2 kinase assay (Caliper mobility shift, LabChip 3000); type: biochemical
T1 construct: GST-JAK2(808-1132); purchased Invitrogen (Carlsbad, USA) #4288
How it was run: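 Recombinant GST-JAK2(808-1132) kinase domain with FITC-labelled JAK3tide peptide substrate and ATP; 60 min at 30 °C, EDTA stop. Substrate/product ratio read by microfluidic mobility shift; compounds at 8 final concentrations, 10 to 0.003 μM.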

T1 sequence (O60674 808-1132): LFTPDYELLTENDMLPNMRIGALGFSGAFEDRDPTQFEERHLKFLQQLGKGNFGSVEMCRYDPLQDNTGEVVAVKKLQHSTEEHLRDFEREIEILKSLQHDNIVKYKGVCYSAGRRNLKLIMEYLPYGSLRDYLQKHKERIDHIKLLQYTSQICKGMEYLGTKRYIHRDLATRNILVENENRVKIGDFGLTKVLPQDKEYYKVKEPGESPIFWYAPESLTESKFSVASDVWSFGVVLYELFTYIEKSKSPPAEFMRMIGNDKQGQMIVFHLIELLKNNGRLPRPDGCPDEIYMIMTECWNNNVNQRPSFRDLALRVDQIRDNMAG

| SMILES | IC50 [1] [nM] | IC50 (GST-JAK2(808-1132)) [nM] |
| --- | --- | --- |
| C[C@@H]1CN[C@@H](C)CN1c1ccc(Nc2ncc3ccn(-c4ccc(S(=O)(=O)NC(C)(C)C)cc4)c3n2)cn1 (racemic) [Example 356, N-tert-Butyl-4-{2-[6-((2R,5S)-2,5-dimethyl-piperazin-1-yl)-pyridin-3-ylamino]-pyrrolo[2,3-d]pyrimidin-7-yl}-benzenesulfonamide] | 5.9 | 3.2 |
| Fc1cc(-n2ccc3cnc(Nc4ccnc(N5CCNC(C(F)(F)F)C5)c4)nc32)cc(F)c1CN1CCOCC1 (racemic) [Example 364, [7-(3,5-Difluoro-4-morpholin-4-ylmethyl-phenyl)-7H-pyrrolo[2,3-d]pyrimidin-2-yl]-[2-(3-trifluoromethyl-piperazin-1-yl)-pyridin-4-yl]-amine] | 2.8 | ≤ 3 |
| Cc1ccc(Nc2ncc3ccn(-c4ccc(C(=O)N5CCS(=O)(=O)CC5)c(F)c4)c3n2)cc1CN1CCNC(C(F)(F)F)C1 (racemic) [Example 403] | 22.5 | ≤ 3 |
| Cc1ccc(Nc2ncc3ccn(-c4cc(F)c(CN5CCOCC5)c(F)c4)c3n2)cc1CN1CCNC(C(F)(F)F)C1 (racemic) [Example 404, [7-(3,5-Difluoro-4-morpholin-4-ylmethyl-phenyl)-7H-pyrrolo[2,3-d]pyrimidin-2-yl]-[4-methyl-3-(3-trifluoromethyl-piperazin-1-ylmethyl)-phenyl]-amine] | 141 | 5.6 |
| Fc1cc(-n2ccc3cnc(Nc4ccnc(CN5CCNC(C(F)(F)F)C5)c4)nc32)cc(F)c1CN1CCOCC1 (racemic) [Example 408, [7-(3,5-Difluoro-4-morpholin-4-ylmethyl-phenyl)-7H-pyrrolo[2,3-d]pyrimidin-2-yl]-[2-(3-trifluoromethyl-piperazin-1-ylmethyl)-pyridin-4-yl]-amine] | 9.2 | ≤ 3 |
| Cc1ccc(Nc2ncc3ccn(-c4cc(F)c(CN5CCOCC5)c(F)c4)c3n2)cc1CN1CCC(O)C1 (racemic) [Example 411, 1-{5-[7-(3,5-Difluoro-4-morpholin-4-ylmethyl-phenyl)-7H-pyrrolo[2,3-d]pyrimidin-2-ylamino]-2-methyl-benzyl}-pyrrolidin-3-ol] | 2.6 | ≤ 3 |
| COC1CCN(Cc2cc(Nc3ncc4ccn(-c5cc(F)c(CN6CCOCC6)c(F)c5)c4n3)ccc2C)C1 (racemic) [Example 417, [7-(3,5-Difluoro-4-morpholin-4-ylmethyl-phenyl)-7H-pyrrolo[2,3-d]pyrimidin-2-l]-[3-(3-methoxy-pyrrolidin-1-ylmethyl)-4-methyl-phenyl]-amine] | 5 | ≤ 3 |
| COC1CCN(Cc2cc(Nc3ncc4ccn(-c5cc(F)c(CN6CCOCC6)c(F)c5)c4n3)ccn2)C1 (racemic) [Example 426, [7-(3,5-Difluoro-4-morpholin-4-ylmethyl-phenyl)-7H-pyrrolo[2,3-d]pyrimidin-2-yl]-[2-(3-methoxy-pyrrolidin-1-ylmethyl)-pyridin-4-yl]-amine] | 18.3 | ≤ 3 |
| CN(C)C1CCN(Cc2cc(Nc3ncc4ccn(-c5cc(F)c(CN6CCOCC6)c(F)c5)c4n3)ccn2)C1 (racemic) [Example 427, [7-(3,5-Difluoro-4-morpholin-4-ylmethyl-phenyl)-7H-pyrrolo[2,3-d]pyrimidin-2-yl]-[2-(3-dimethylamino-pyrrolidin-1-ylmethyl)-pyridin-4-yl]-amine] | 33.2 | ≤ 3 |
| Cc1ccc(Nc2ncc3ccn(-c4cc(F)c(CN5CCOCC5)c(F)c4)c3n2)cc1CN1CCC(N(C)C)C1 (racemic) [Example 434, [7-(3,5-Difluoro-4-morpholin-4-ylmethyl-phenyl)-7H-pyrrolo[2,3-d]pyrimidin-2-yl]-[3-(3-dimethylamino-pyrrolidin-1-ylmethyl)-4-methyl-phenyl]-amine] | 31.5 | ≤ 3 |
| Fc1cc(-n2ccc3cnc(Nc4ccc(N5CCNC(C(F)(F)F)C5)nc4)nc32)cc(F)c1CN1CCOCC1 (racemic) [Example 469, [7-(3,5-Difluoro-4-morpholin-4-ylmethyl-phenyl)-7H-pyrrolo[2,3-d]pyrimidin-2-yl]-[6-(3-trifluoromethyl-piperazin-1-yl)-pyridin-3-yl]-amine] | 25 | ≤ 3 |
| Fc1cc(-n2ccc3cnc(Nc4ccc(OC5CCNC5)nc4)nc32)cc(F)c1CN1CCOCC1 (racemic) [Example 519, [7-(3,5-Difluoro-4-morpholin-4-ylmethyl-phenyl)-7H-pyrrolo[2,3-d]pyrimidin-2-yl]-[6-(pyrrolidin-3-yloxy)-pyridin-3-yl]-amine] | 60.5 | 3.6 |

Continued, values first:

| IC50 [1] [nM] | IC50 (GST-JAK2(808-1132)) [nM] | SMILES |
| --- | --- | --- |
| 13.3 | ≤ 3 | OC1CCN(c2ccc(Nc3ncc4ccn(-c5cc(F)c(CN6CCOCC6)c(F)c5)c4n3)cn2)C1 (racemic) [Example 347, 1-{5-[7-(3,5-Difluoro-4-morpholin-4-ylmethyl-phenyl)-7H-pyrrolo[2,3-d]pyrimidin-2-ylamino]-pyridin-2-yl}-pyrrolidin-3-ol] |
| 1.3 | ≤ 3 | Fc1cc(-n2ccc3cnc(Nc4ccc(C5CNCCO5)cc4)nc32)cc(F)c1CN1CCOCC1 (racemic) [Example 354, [7-(3,5-Difluoro-4-morpholin-4-ylmethyl-phenyl)-7H-pyrrolo[2,3-d]pyrimidin-2-yl]-(4-morpholin-2-yl-phenyl)-amine] |
| 45 | 13 | Cc1ccc(Nc2ncc3ccn(-c4cc(F)c(CN5CCOCC5)c(F)c4)c3n2)cc1CN1C[C@H](C)NC[C@H]1C (racemic) [Example 378, [7-(3,5-Difluoro-4-morpholin-4-ylmethyl-phenyl)-7H-pyrrolo[2,3-d]pyrimidin-2-yl]-[3-((2R,5S)-2,5-dimethyl-piperazin-1-ylmethyl)-4-methyl-phenyl]-amine] |
| 3.6 | ≤ 3 | Cc1ccc(Nc2ncc3ccn(-c4cc(F)c(CN5CCS(=O)(=O)CC5)c(F)c4)c3n2)cc1CN1CCC(O)C1 (racemic) [Example 425, 1-(5-{7-[4-(1,1-Dioxido-thiomorpholin-4-ylmethyl)-3,5-difluoro-phenyl]-7H-pyrrolo[2,3-d]pyrimidin-2-ylamino}-2-methyl-benzyl)-pyrrolidin-3-ol] |
| 3.4 | ≤ 3 | Cc1ccc(Nc2ncc3ccn(-c4cc(F)c(CN5CCS(=O)(=O)CC5)c(F)c4)c3n2)cc1CN1CCC(N(C)C)C1 (racemic) [Example 435, [3-(3-Dimethylamino-pyrrolidin-1-ylmethyl)-4-methyl-phenyl]-{7-[4-(1,1-dioxido-thiomorpholin-4-ylmethyl)-3,5-difluoro-phenyl]-7H-pyrrolo[2,3-d]pyrimidin-2-yl}-amine] |
| 34.5 | ≤ 3 | Fc1cc(-n2ccc3cnc(Nc4ccc(CN5CCNC(C(F)(F)F)C5)cc4)nc32)cc(F)c1CN1CCOCC1 (racemic) [Example 476, [7-(3,5-Difluoro-4-morpholin-4-ylmethyl-phenyl)-7H-pyrrolo[2,3-d]pyrimidin-2-yl]-[4-(3-trifluoromethyl-piperazin-1-ylmethyl)-phenyl]-amine] |
| 38 | ≤ 3 | COC1CCN(Cc2ccc(Nc3ncc4ccn(-c5cc(F)c(CN6CCOCC6)c(F)c5)c4n3)cc2)C1 (racemic) [Example 506, [7-(3,5-Difluoro-4-morpholin-4-ylmethyl-phenyl)-7H-pyrrolo[2,3-d]pyrimidin-2-yl]-[4-(3-methoxy-pyrrolidin-1-ylmethyl)-phenyl]-amine] |
